Measurements reported in patent publication US12139481B2, “Compositions comprising macrocycle derivatives incorporating bridged macrocycles and methods of producing and using same” (Southwestern Oklahoma State University, priority 2015, dated 2024).

How the values were obtained:
[1] = tested on: Cryptococcus neoformans ATCC 90113; assay: Antimicrobial microdilution assay against Cryptococcus neoformans (modified CLSI/NCCLS, optical density); type: cell-based; conditions: for X more potent than Amphotericin B: C. neoformans, ratio of molar IC50 to Amphotericin B; for C. neoformans IC50 / IC50: in vitro, C. neoformans ATCC 90113; for IC50: read-out: C. neoformans IC50 (mol/L)
Experimental: Summary: Various macrocyclic derivatives constructed in accordance with the presently disclosed and/or claimed inventive concept(s) were screened in vitro against Cryptococcus neoformans ATCC 90113 using a microdilution assay. The minimum fungicidal concentration (MFC), the lowest test concentration that kills the organism, was determined in broth media.
Antimicrobial assay: Cryptococcus neoformans ATCC 90113 were obtained from the American Type Culture Collection (Manassas, VA.). The susceptibility testing was performed using a modified version of the CLSI (formerly NCCLS) methods (see below), and optical density was used to monitor growth. Samples were serially diluted in 20% DMSO/saline and transferred in duplicate to 96-well flat bottom microplates. Microbial inocula were prepared by correcting the OD630 of cell/spore suspensions in incubation broth RPMI at pH 6.0 to afford final desired target inocula. Amphotericin B (“AMB;” ICN Biomedicals, OH) was used as drug control. The organism concentration was read at 630 nm using the Biotek Powerwave XS plate reader (Bio-Tek instruments, VT) prior to and after incubation. Minimum fungicidal concentrations were determined by removing 5 μL from each clear well, transferring to agar, and incubating until growth was seen. The MFC/MBC is defined as the lowest test concentration that kids the organism (allows no growth on agar).
References for NCCLS methods referenced above: 1 NCCLS. Reference method for broth dilution antifungal susceptibility testing of yeasts, Vol. 22. Approved standard, 2nd ed. Wayne: National Committee for Clinical Laboratory Standards; 2002: 1-51. 2 NCCLS. Reference method for broth dilution antifungal susceptibility testing of conidium forming filamentous fungi, Vol. 18. Proposed standard M38-P. Wayne: National Committee for Clinical Laboratory Standards; 1998: 1-39. 3 NCCLS. Methods for dilution antimicrobial susceptibility tests for bacteria that grow aerobically, Vol. 20. NCCLS Document M7-A5. Wayne: National Committee for Clinical Laboratory Standards; 2000: 1-58.
The term “IC50” as used herein will be understood to refer to a test concentration in mol/L that affords 50% inhibition of the microbe relative to negative and positive controls. […] The abbreviation “MFC” as used herein will be understood to refer to a minimum fungicidal concentration, or the lowest test concentration in mol/L that kills the organism. All IC50s are calculated using the XLfit® fit curve fitting software (ID Business Solutions Ltd, Guildford, Surrey, UK).
General Experimental Procedures. All organisms were obtained from the American Type Culture Collection (Manassas, VA) and include the fungi Candida albicans ATCC 90028, C. glabrata ATCC 90030, C. krusei ATCC 6258, and Cryptococcus neoformans ATCC 90113, and the bacteria Staphylococcus aureus ATCC 29213 and methicillin-resistant S. aureus ATCC 33591 (MRS). All organisms were tested using modified versions of the CLSI (formerly NCCLS) methods. For all organisms, optical density was used to monitor growth (NCCLS, Reference Method for Broth Dilution Antifungal Susceptibility Testing of Yeasts; Approved Standard M27-A2. National Committee on Clinical Laboratory Standards, 2002 22 (15); and NCCLS, Methods for Dilution Antimicrobial Susceptibility Tests for Bacteria that Grow Aerobically; Approved Standard, Seventh Edition M7-A7. National Committee on Clinical Laboratory Standards, 2006. 26(2)).
Samples (dissolved in DMSO) were serially-diluted in 20% DMSO/saline and transferred (10 μL) in duplicate to 96 well flat bottom microplates.

[2] = tested on: L. donovani promastigotes; assay: Antileishmanial Alamar Blue assay on promastigotes; type: cell-based, Leishmania donovani; conditions: for X more potent than Pentamidine: L. donovani, ratio of molar IC50 to Pentamidine; for L. donovani IC50 / IC50: promastigotes, 48 hours, Alamar Blue; for IC50: read-out: L. donavani IC50
Experimental: Methods: The compounds were screened in vitro against the promastigote forms of the leishmania parasites employing the Alamar Blue assay as discussed below.
Antileishmanial activity of the compounds was tested in vitro against a culture of L. donovani promastigotes, grown in RPMI 1640 medium supplemented with 10% fetal calf serum (FCS, Gibco Chem. Co., Grand Island, NY) at 26° C. A 3-day-old culture was diluted to 5×10^5 promastigotes/mL. Drug dilutions (50-3.1 μg/mL) were prepared directly in cell suspension in 96-well plates. Plates were incubated at 26° C. for 48 hours, and growth of leishmania promastigotes was determined by Alamar Blue assay. Standard fluorescence was measured on a FLUOstar® Galaxy plate reader (BMG Lab Technologies, Ortenberg, Germany) at an excitation wavelength of 544 nm and emission wavelength of 590 nm. Pentamidine and amphotericin B were used as the standard antileishmanial agents. Percent growth was calculated and plotted versus test concentration for computing the IC50 values.

Molecule | X more potent than Amphotericin B [1] | C. neoformans IC50 [1] [µg/mL] | IC50 [1] [µM] | X more potent than Pentamidine [2] | L. donovani IC50 [2] [µg/mL] | IC50 [2] [µM]
CC(=O)[O-].Clc1cc(CN2CCNCCN3CCN(CC3)CC2)cc(Cl)n1.F[P-](F)(F)(F)(F)F.[Ni+2] [OB106, [Ni(dcp1-SB-cyclen)(OAc)]PF6] | 0.38 | 0.390 | 0.628 | 0.14 | 23.19 | 37.3
CC(=O)[O-].CC(=O)[O-].CC(=O)[O-].CC(=O)[O-].O=[N+]([O-])c1ccc(CC2CNCCN(Cc3ccc(CN4CCCN5CCN(CCCNCC4)CC5)cc3)CCCN3CCN(CC3)C2)cc1.[Zn+2].[Zn+2] (stereo not drawn) [SJA235, [Zn2(bis-SB-C-Ar-NO2)(OAc)4]] | 0.13 | 1.930 |  | 0.16 | 34.77 | 
CC(=O)[O-].F[P-](F)(F)(F)(F)F.[Zn+2].c1ccc(CN2CCCNCCN(Cc3ccccc3)CCCNCC2)cc1 [SLK07B, [Zn(Bn2Cyclam)(OAc)]PF6] | 0.01 | 19.840 |  | 1.16 | 2.97 | 
O.[Cl-].[Cl-].[Mn+2].c1ccc(CN2CCCNCCN(Cc3ccccc3)CCCNCC2)cc1 [TJH397A, Mn(Bn2Cyclam)Cl2•H2O] | 0.01 | 16.870 | 32.2 | 1.21 | 2.31 | 4.41
[Cl][Mn-2]([Cl])([Cl])[Cl].[Cl][Mn-2]([Cl])([Cl])[Cl].[Mn+2].[Mn+2].c1cc(CN2CCCN3CCNCCCN(CC3)CC2)ccc1CN1CCCN2CCNCCCN(CC2)CC1 [TJH412, [Mn2(H2-p-CB-cyclams)][MnCl4]2] | 0.13 | 1.990 | 1.88 | 0.17 | 33.37 | 31.5
CC(=O)[O-].CC(=O)[O-].F[P-](F)(F)(F)(F)F.F[P-](F)(F)(F)(F)F.O.[Zn+2].[Zn+2].c1cc(CN2CCCN3CCNCCCN(CC3)CC2)ccc1CN1CCCN2CCNCCCN(CC2)CC1 [TJH417B, [Zn2(H2-p-CB-cyclams)(OAc)2][PF6]2•H2O] | 0.08 | 3.120 |  | 0.17 | 34.93 | 
[Co2(m-CB-Homocyclens)(OAc)2.6][PF6]1.4 [CDG036] | 0.08 | 3.040 | 2.95 | 0.25 | 22.23 | 21.6
[Cu2(m-CB-Homocyclens)(OAc)2.5][PF6]1.5 [CDG035] | 0.08 | 3.260 | 3.11 | 0.21 | 26.37 | 25.2
[Ni3(tris-CB-Cyclams)(OAc)3][PF6]3•2.5H2O [BNS23] | 0.03 | 12.110 | 7.26 | 0.28 | 31.63 | 19
[Zn(dcp1-SB-cyclen)(OAc)]PF6 [OB110A] | 0.30 | 0.610 | 0.805 | 0.11 | 38.32 | 50.6
p-CB-cyclam-cyclen [CMB008D] | 0.17 | ≤ 0.800 | 1.44 | 0.08 | 38.75 | 69.8
p-SB-cyclens HCl salt [OB24B] | 0.31 | 0.670 | 0.776 | 0.14 | 32.40 | 37.5
